Each structure is given as a SMILES string. Some results are limits rather than exact numbers.

Holding throughout (assay type): in vivo
In test [1] the test system is Aster Leafhopper [Macrosteles fascifrens (Stal)]. Nature of the test: Aster leafhopper test (LH). The conditions noted are these: adults/nymphs, 48 hours, percent in solution.
Test [2] concerns Housefly [Musca domestica]. Nature of the test: Housefly insecticidal test (HF). The note with it: per 25 female houseflies, 48 hours.
Test [3] has as its system Tobacco Budworm [Heliothis virescens (Fabricius)] eggs. Nature of the test: Tobacco budworm egg test (TBW-E). The note with it: percent in solution.
The test system of test [4] is Maize weevil [Sitophilus Zeamais (Motschulsky)]. Nature of the test: Maize weevil test (MW). The note with it: adult weevils, treated corn seeds, 48 hours, percent in solution. In short, it runs like this:
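Adult weevils (10) were placed with four corn seeds that had been dipped 2-3 s in compound dissolved in 50:50 acetone:water, then dried, and held at about 25° C. Mortality was scored at 48 h. LC50 was taken from dosage-mortality curves and expressed as percent compound in solution, from a 0.01% top concentration.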

The test system of test [5] is Cabbage Looper [Trichoplusia ni (Hubner)]. Nature of the test: Cabbage looper test (CL). The conditions noted are these: second-instar larvae, 3-5 days, percent in solution.

`FC(F)(F)C(=Nc1ccc(Cl)cc1)OCc1cccc(Oc2ccccc2)c1` [Compound 35]: the “LC50 LH” value in test [1] is greater than 0.05%. The “LC50 HF” value in test [2] is 15 µg. Also, in test [3], the “LC50 TBW E” value was 0.03%. Moreover, the “LC50 MW” value in test [4] is listed as greater than 0.01%. Also, the “LC50 CL” value in test [5] was 0.008%.
The matching figures for `CC(C)(F)C(=Nc1ccc(F)c(Cl)c1)OCc1cc(Oc2ccc(F)cc2)ccc1F` [Compound 316]: greater than 0.05%, 100 µg, greater than 0.1%, greater than 0.01% and 0.0015%.
In the same order, the values of `CC(C)C(=Nc1ccccc1)OCc1cccc(Oc2ccccc2)c1` [Compound 43] are greater than 0.05%, 7 µg, 0.05%, greater than 0.01% and 0.018%.
Take `CC(=Nc1ccc(F)c(F)c1)OCc1coc(Cc2ccccc2)c1` [Compound 526]: the “LC50 LH” value in test [1] is greater than 0.05%. Further, in test [2], the “LC50 HF” value came out at 8.3 µg. The “LC50 TBW E” value in test [3] is listed as greater than 0.1%. Further, in test [4], the “LC50 MW” value was greater than 0.01%. Also, the “LC50 CL” value in test [5] was greater than 0.01%.
`CC(C)C(=Nc1ccc(C(F)(F)F)cc1)OCc1cccc(Oc2ccc(Cl)cc2)c1` [Compound 365]: the “LC50 LH” value in test [1] is less than 0.05%. Moreover, the “LC50 HF” value in test [2] was greater than 100 µg. Further, the “LC50 TBW E” value in test [3] turned out to be 0.038%. In test [4], the “LC50 MW” value is recorded as greater than 0.01%. Further, in test [5], the “LC50 CL” value is reported as 0.00025%.
Consider `COCc1c(F)c(F)c(COC(=Nc2ccc(C(C)(C)C)cc2)C(C)C)c(F)c1F` [Compound 544], for which, in test [1], the “LC50 LH” value is greater than 0.05%. In test [2], the “LC50 HF” value was greater than 100 µg. Also, the “LC50 TBW E” value in test [3] is given as greater than 0.1%. For the same compound, in test [4], the “LC50 MW” value is greater than 0.01%. For the same compound, in test [5], the “LC50 CL” value is reported as greater than 0.1%.
Take `CC(C)C(=Nc1ccc(-c2ccccc2)cc1)OCc1cccc(Oc2ccccc2)c1` [Compound 186]: in test [1], the “LC50 LH” value is recorded as greater than 0.05%. For the same compound, in test [2], the “LC50 HF” value is greater than 100 µg. For the same compound, the “LC50 TBW E” value in test [3] is greater than 0.1%. The “LC50 MW” value in test [4] is greater than 0.01%. The “LC50 CL” value in test [5] is listed as 0.008%.
As to `CC(C)C(=Nc1cccc(C(F)(F)F)c1)OCc1cccc(Nc2ccc(F)cc2)c1` [Compound 513], the “LC50 LH” value in test [1] was greater than 0.05%. Also, the “LC50 HF” value in test [2] was 81 µg. The “LC50 TBW E” value in test [3] is greater than 0.1%. In test [4], the “LC50 MW” value is reported as greater than 0.01%. For the same compound, in test [5], the “LC50 CL” value was 0.007%.
On to `CC(C)C(=Nc1ccc(Br)cc1F)OCc1cccc(Oc2ccc(F)cc2)c1` [Compound 351], for which, in test [1], the “LC50 LH” value is reported as greater than 0.05%. Further, the “LC50 HF” value in test [2] amounted to 26 µg. The “LC50 TBW E” value in test [3] was greater than 0.1%. The “LC50 MW” value in test [4] is reported as greater than 0.01%. Besides, the “LC50 CL” value in test [5] was 0.0007%.
As for `CC(C)C(=Nc1ccc2c(c1)OCO2)OCc1ccc(F)c(Oc2ccc(Cl)cc2)c1` [Compound 366], the “LC50 LH” value in test [1] is listed as 0.05%. Also, the “LC50 HF” value in test [2] was less than 100 µg. Besides, the “LC50 TBW E” value in test [3] came to 0.012%. Also, in test [4], the “LC50 MW” value is greater than 0.01%. In test [5], the “LC50 CL” value came out at 0.0007%.
In the case of `CC(C)C(=Nc1ccc(F)c(Cl)c1)OCc1cccc(Oc2ccccn2)c1` [Compound 549], the “LC50 LH” value in test [1] is greater than 0.05%. Besides, the “LC50 HF” value in test [2] was less than 100 µg. In test [3], the “LC50 TBW E” value is reported as greater than 0.1%. Further, the “LC50 MW” value in test [4] was greater than 0.01%. Further, the “LC50 CL” value in test [5] is greater than 0.1%.
In the case of `CC(C)(C)C(=Nc1ccc(F)c(F)c1)OCc1coc(Cc2ccccc2)c1` [Compound 525], the “LC50 LH” value in test [1] is reported as greater than 0.05%. Besides, the “LC50 HF” value in test [2] was greater than 100 µg. Besides, in test [3], the “LC50 TBW E” value is given as greater than 0.1%. In addition, the “LC50 MW” value in test [4] is recorded as greater than 0.01%. Further, the “LC50 CL” value in test [5] is listed as less than 0.1%.
As to `Cc1ccc(N=C(OCc2ccc(F)c(Oc3ccccc3)c2)C(C)C)cc1Cl` [Compound 356], in test [1], the “LC50 LH” value is less than 0.05%. Also, the “LC50 HF” value in test [2] is less than 100 µg. For the same compound, the “LC50 TBW E” value in test [3] stood at 0.025%. Moreover, in test [4], the “LC50 MW” value is reported as greater than 0.01%. Further, in test [5], the “LC50 CL” value is on record as greater than 0.1%.
Consider `CC(C)C(=Nc1cccc(C(C)(C)C)c1)OCc1cccc(Oc2ccc(F)cc2)c1` [Compound 350], for which, in test [1], the “LC50 LH” value is on record as greater than 0.05%. Further, in test [2], the “LC50 HF” value is greater than 100 µg. The “LC50 TBW E” value in test [3] is greater than 0.1%. Moreover, the “LC50 MW” value in test [4] is recorded as greater than 0.01%. Besides, in test [5], the “LC50 CL” value was determined as 0.0045%.
For the compound `CC(C)C(=Nc1ccc(F)c(Cl)c1)OCc1cccc(Oc2ccc(Br)cc2)n1` [Compound 492], the “LC50 LH” value in test [1] is greater than 0.05%. For the same compound, the “LC50 HF” value in test [2] worked out at 15 µg. Further, in test [3], the “LC50 TBW E” value is given as 0.015%. In test [4], the “LC50 MW” value is greater than 0.01%. In test [5], the “LC50 CL” value is 0.00028%.
In the same order, the values of `CC(C)C(=Nc1ccc2c(c1)OCO2)OCc1cccc(Oc2ccc(Cl)cc2)n1` [Compound 466] are greater than 0.05%, 13 µg, greater than 0.1%, 0.01% and 0.0008%.
With `CCC(=Nc1ccc(Cl)cc1)OCc1cccc(Oc2ccccc2)c1` [Compound 11], the “LC50 LH” value in test [1] is listed as greater than 0.05%. Moreover, in test [2], the “LC50 HF” value turned out to be 6 µg. Besides, in test [3], the “LC50 TBW E” value was greater than 0.1%. In addition, the “LC50 MW” value in test [4] was greater than 0.01%. For the same compound, the “LC50 CL” value in test [5] came out at 0.025%.
`COCc1c(F)c(F)c(COC(=Nc2ccc(F)c(Cl)c2F)C(C)C)c(F)c1F` [Compound 522]: in test [1], the “LC50 LH” value is 0.05%. In test [2], the “LC50 HF” value was determined as 17.5 µg. The “LC50 TBW E” value in test [3] was greater than 0.1%. In test [4], the “LC50 MW” value was greater than 0.01%. Besides, the “LC50 CL” value in test [5] is reported as greater than 0.1%.
As to `Fc1ccc(N=C(OCc2cccc(Oc3ccccc3)c2)C(F)F)cc1` [Compound 50], in test [1], the “LC50 LH” value is greater than 0.05%. Also, the “LC50 HF” value in test [2] came out at 43 µg. Also, the “LC50 TBW E” value in test [3] is listed as greater than 0.05%. In addition, in test [4], the “LC50 MW” value is reported as greater than 0.01%. Moreover, the “LC50 CL” value in test [5] is listed as 0.02%.
Consider `CC(C)C(=Nc1ccc(F)cc1)OCCc1cccc(Oc2ccccc2)c1` [Compound 456], for which, in test [1], the “LC50 LH” value is greater than 0.05%. Besides, the “LC50 HF” value in test [2] was greater than 100 µg. In addition, in test [3], the “LC50 TBW E” value was greater than 0.05%. In addition, the “LC50 MW” value in test [4] is listed as greater than 0.01%. The “LC50 CL” value in test [5] was found to be 0.017%.
Consider `Cc1ccc(N=C(OCc2cccc(Oc3ccccc3)c2)C(C)C)cc1` [Compound 156], for which the “LC50 LH” value in test [1] is greater than 0.05%. In addition, the “LC50 HF” value in test [2] was 10 µg. Moreover, the “LC50 TBW E” value in test [3] is recorded as 0.05%. Besides, in test [4], the “LC50 MW” value is greater than 0.01%. Besides, the “LC50 CL” value in test [5] is reported as 0.004%.
For the compound `CC(C)C(=Nc1ccc(Cl)cc1)OCc1cccc(Oc2ccc(F)cc2)c1` [Compound 189], in test [1], the “LC50 LH” value was found to be 0.002%. Moreover, in test [2], the “LC50 HF” value was 17 µg. In test [3], the “LC50 TBW E” value worked out at 0.07%. Moreover, in test [4], the “LC50 MW” value is on record as greater than 0.01%. Further, in test [5], the “LC50 CL” value stood at 0.00027%.
As for `CC(C)C(=Nc1ccc2c(c1)OCO2)OCc1cc(Oc2ccc(F)cc2)ccn1` [Compound 515], the “LC50 LH” value in test [1] was greater than 0.05%. Moreover, the “LC50 HF” value in test [2] was 28 µg. Moreover, the “LC50 TBW E” value in test [3] is given as greater than 0.1%. Besides, the “LC50 MW” value in test [4] is reported as greater than 0.01%. The “LC50 CL” value in test [5] is listed as 0.0015%.
